Values of other authors, collected in patent publication US20230203322A1, “NON-ABLATIVE MULTI-LAYER COATINGS FOR BOAT PROPELLERS THAT PREVENT WATER-DERIVED DAMAGE, CORROSION, AND DETERIORATION FROM BIOLOGICAL CHEMICAL PROCESSES” (priority 2021, published 2023).

Assays:
[1] = tested on: biofouling animal organisms
barnacles = details: copper release

Structure (SMILES) | effect on biofouling animal organisms ([1]; by itself) | synergistic enhancement of the biofouling anti-proliferating effect of copper and its alloys and salts ([1]; used in combination with the copper containing-substance) | minimal effective rate known to be effective for eradicating barnacles (barnacles)
[O]=[Zn] [zinc oxide] | only a weak effect | up to 200 times | –
[Cu] [copper] | – | – | 4 × 10^-6 micrograms per cm^2 per day
